Laboratory results: the NIST ThermoML archive (doi:10.1016/j.fluid.2015.02.018)
± gives the expanded uncertainty stated by the source.

What was measured:
[1] = DTA; for Normal melting temperature: Crystal
[2] = Molar enthalpy of transition or fusion; details: Crystal; DSC

Normal melting temperature [1] [°C] | Molar enthalpy of transition or fusion [2] [kcal/mol] | Glass transition temperature ([1]; Glass) [°C] | Compound
193.2 ± 0.4 | 18.2 ± 0.382 | – | CN1[C@@H](CC(=O)c2ccccc2)CCC[C@H]1C[C@H](O)c1ccccc1.Cl [(-)-lobeline hydrochloride]
93.7 ± 0.4 | 10.8 ± 0.239 | 18.7 ± 0.4 | OCCN1CCN(CCCN2c3ccccc3Sc3ccc(Cl)cc32)CC1 [perphenazine]
269.1 ± 0.4 | 6.19 ± 0.143 | – | Cn1c(=O)c2[nH]cnc2n(C)c1=O.Cn1c(=O)c2[nH]cnc2n(C)c1=O.NCCN [aminophylline]
160.5 ± 0.4 | 18 ± 0.359 | – | COc1ccc2c(c1)c(CC(=O)O)c(C)n2C(=O)c1ccc(Cl)cc1
